Holding throughout (format): cell-based
For one assay, the system named is C. albicans. Briefly: Extracellular acidification assay. The following applies: Candida albicans, mean ± SEM n = 3. From the text: (§1) It was subsequently evaluated whether or not the carbazoles were able to prevent extracellular acidification of the surrounding media by blocking the pumping activity of the H^+-ATPase within fungal cells.[15] […] The H^+-ATPase requires ATP to transport protons out of fungal cells. Consequently, a decrease in intracellular ATP (iATP) levels will indirectly affect H^+-ATPase activity. […] In all cases, iATP levels were […] in C. albicans cells exposed to carbazoles compared to the untreated control. […] This implies that the carbazoles need to pass the fungal membrane to inhibit the H^+-ATPase and 7, 18 and 19 may have reduced membrane permeability.
(§2) The ability of S. cerevisiae and C. albicans to acidify the media upon glucose addition was evaluated using the pH sensor dextran (40,000MW)-fluorescein-isothiocyanate as described in Kjellerup et al., 2017^6. Briefly, the cells was starved overnight in 50 mM KCl, pH 6.7 at 4 °C. The cell suspension (Final OD600 of 0.19) was mixed with 1.3 µg/ml dextran (40,000MW)-fluorescein-isothiocyanate, 1.5 % DMSO containing inhibitors and the assay initiated with the addition of 2 % D-(+)-glucose. The rate of media acidification was calculated based on the slope of the fluorescent drop in the first 12 minutes after glucose addition.

In the next assay the test system is S. cerevisiae. Briefly: Extracellular acidification assay. The following applies: Saccharomyces cerevisiae, mean ± SEM n = 3.
Description: as §1, §2

The subject of assay [1] is Staphylococcus aureus ATCC 29213. Briefly: Bacterial growth inhibition assay. The conditions noted are these: ATCC29213; Staphylococcus aureus ATCC 29213, n=3. From the text: (§3) To further support the notion that the carbazole H^+-ATPase inhibitors were specific inhibitors of fungal growth, we tested the effect of all fifteen compounds on the growth of two bacterial species; the gram-positive Staphylococcus aureus and the gram-negative Escherichia coli. […] Compound 16 and 17 were interesting as they were potent inhibitors of the ATP hydrolysis in the enzymatic assay and potent H^+-ATPase inhibitors in whole fungal cell assay (iATP and extracellular acidification).
(§4) The bacterial strains used in this study were purchased from DSMZ, Germany. Bacteria cells were grown in Mueller-Hinton broth (MHB) to mid-exponential phase and freeze stocks were prepared at 1-2 × 10^8 CFU/mL in MHB and 20% glycerol and stored at -20 °C. These stocks were used to inoculate bacterial growth assays at a final concentration of 5 × 10^5 CFU/mL in MHB together with 1.5 % DMSO or compound in a 96-well plate and incubated for 16-29 h at 35 °C, whereafter growth was determined by reading at OD600. Kanamycin and ampicillin were used as positive control compounds. Experiments were performed at least twice and standard errors were typically less than 5 %.

Assay [2] relates to Escherichia coli ATCC 25922. The assay is described as follows: Bacterial growth inhibition assay. The conditions noted are these: ATCC25922; Escherichia coli ATCC 25922, n=3.
Description: as §3, §4

The subject of assay [3] is Candida glabrata ATCC 90030. The assay is described as follows: Fungal growth inhibition MIC (MFC). The conditions noted are these: Nakaseomyces glabratus, ATCC90030, Candida glabrata ATCC 90030 (wild-type); for MIC: RPMI-1640; for MFC: value in brackets. From the text:
We subsequently assessed the carbazole series for antifungal activity, as described in Kjellerup et al., 2017.[15] Table 2, Table 3, Table 4, Table 5 list the minimum inhibitory concentrations (MIC) and the minimum fungicidal concentrations (MFC) of the fifteen compounds tested against the yeasts Saccharomyces cerevisiae, Candida albicans, C. krusei, and two isolates of C. glabrata (a wild-type strain ATCC 90030 and a clinical azole-resistant isolate Cg003 with increased efflux pump expression[19]), and the molds Aspergillus fumigatus and A. flavus. MIC was defined as the lowest concentration inhibiting visual growth of the microorganism in RPMI-1640 media. […] However, in several cases antifungal activity against molds was minimal, Table 5.
Compound hits from the library screening were evaluated against baker yeast S. cerevisiae and C. albicans (ATCC 90028). The minimum inhibitory concentration (MIC) was defined as the lowest concentration inhibiting visual growth of the microorganism and this was determined in triplicate. Standard errors were typically less than 5%. MICs for synthesized compounds were determined on the following fungal isolates: Saccharomyces cerevisiae (ATCC 9763), Candida albicans (SC5314), Candida krusei (ATCC 6258), Candida glabrata (ATCC 90030), Aspergillus flavus (ATCC MYA-1005) and Aspergillus fumigatus (ATCC 13073), which were purchased from American Type Culture Collection, and C. glabrata strain Cg003, which was kindly provided by Julius Subik, Comenius University in Bratislava, Slovak Republic. Cg003 is a clinical isolate, characterized to be resistant to fluconazole and itraconazole due to overexpression of the multidrug resistance efflux pumps Cdr1p and Cdr2p^5. The fungal growth assay was performed as described in Kjellerup et al., 2017^6.

The structures appear in SMILES notation. Converted amounts (≈) assume the structure as drawn. Bounds are passed on as bounds.

Regarding `CN1CCN(CC(O)Cn2c3ccc(Cl)cc3c3cc(Cl)ccc32)CC1` (centres unmarked) [Compound 8, 1-(3,6-dichloro-9H-carbazol-9-yl)-3-(4-methylpiperazin-1-yl)propan-2-ol], the results for the IC50 with C. albicans and in the assay on S. cerevisiae were 9.7 ± 6.8 µM and 11.1 ± 2.1 µM, respectively. Further, the MIC in assay [1] was determined as 64 µM (≈ 25.1 µg/mL); in assay [2] it was 75 µM (≈ 29.4 µg/mL); in assay [3], 42 µM (≈ 16.5 µg/mL). This compound displayed a minimum fungicidal concentration (MFC) in assay [3] of 75 µM (≈ 29.4 µg/mL).

For the compound `CN1CCN(CC(O)Cn2c3ccc(O)cc3c3cc(O)ccc32)CC1` (centres unmarked) [Compound 13, 9-(2-hydroxy-3-(4-methylpiperazin-1-yl)propyl)-9H-carbazole-3,6-diol], the minimum inhibitory concentration (MIC) in assay [1], in assay [2] and in assay [3] was above 75 µM throughout. The compound further gave a minimum fungicidal concentration (MFC) in assay [3] above 75 µM.

Take `OC(Cn1ccnc1)Cn1c2ccc(Cl)cc2c2cc(Cl)ccc21` (centres unmarked) [Compound 5, 1-(3,6-dichloro-9H-carbazol-9-yl)-3-(1H-imidazol-1-yl)propan-2-ol]: the minimal inhibitory concentration (MIC) in assay [1] is 7.5 µM (≈ 2.7 µg/mL); in assay [2], above 75 µM; in assay [3], above 75 µM. This compound also had a minimum fungicidal concentration (MFC) in assay [3] above 75 µM.

`Clc1ccc2c(c1)c1cc(Cl)ccc1n2CCCN1CCOCC1` [Compound 18, 4-(3-(3,6-dichloro-9H-carbazol-9-yl)propyl)morpholine]: the minimal inhibitory concentration (MIC) in assay [1], in assay [2] and in assay [3] was above 75 µM in each case. For the same compound, the minimal fungicidal concentration (MFC) in assay [3] is above 75 µM.

For the compound `CN1CCN(CCCn2c3ccc(Cl)cc3c3cc(Cl)ccc32)CC1` [Compound 16, 3,6-dichloro-9-(3-(4-methylpiperazin-1-yl)propyl)-9H-carbazole], the IC50 in the assay with C. albicans came out at 9.5 ± 2.5 µM; with S. cerevisiae, 7.3 ± 0.4 µM. The minimal inhibitory concentration (MIC) in assay [1] came to 24 µM (≈ 9.03 µg/mL); in assay [2] it was 75 µM (≈ 28.2 µg/mL); in assay [3], 7.5 µM (≈ 2.82 µg/mL). This compound came in with an MFC in assay [3] of 7.5 µM (≈ 2.82 µg/mL).

With `OC(CN1CCOCC1)Cn1c2ccc(Cl)cc2c2cc(Cl)ccc21` (centres unmarked) [Compound 7, 1-(3,6-dichloro-9H-carbazol-9-yl)-3-morpholinopropan-2-ol], the 50% inhibitory concentration (IC50) in the assay with C. albicans is 22.2 ± 12.9 µM; with S. cerevisiae, 33.3 ± 0.6 µM. The MIC is 41 µM (≈ 15.6 µg/mL) in assay [1], above 75 µM in assay [2] and above 75 µM in assay [3]. Further, the minimum fungicidal concentration (MFC) in assay [3] is above 75 µM.

`CN(C)CCCCn1c2ccc(Cl)cc2c2cc(Cl)ccc21` [Compound 15]: the IC50 was found to be 13.1 ± 7.2 µM in the assay with C. albicans and 16.2 ± 2.6 µM in the assay with S. cerevisiae. Moreover, the values for the MIC in assay [1], in assay [2] and in assay [3] were 24 µM (≈ 8.05 µg/mL), 75 µM (≈ 25.1 µg/mL) and 7.5 µM (≈ 2.51 µg/mL), respectively. For the same compound, the MFC in assay [3] amounted to 7.5 µM (≈ 2.51 µg/mL).

For `CCC(C)NCC(O)Cn1c2ccc(Cl)cc2c2cc(Cl)ccc21` (centres unmarked) [Compound 10, 1-(sec-butylamino)-3-(3,6-dichloro-9H-carbazol-9-yl)propan-2-ol], the 50% inhibitory concentration (IC50) stood at 2.4 ± 1.2 µM in the assay on C. albicans and 2.1 ± 1 µM in the assay with S. cerevisiae. Further, the MIC amounted to 2.9 µM (≈ 1.06 µg/mL) in assay [1], 20 µM (≈ 7.31 µg/mL) in assay [2] and 1.2 µM (≈ 0.438 µg/mL) in assay [3]. The compound further gave an MFC in assay [3] of 3.8 µM (≈ 1.39 µg/mL).

Consider `CN(C)CCCn1c2ccc(Cl)cc2c2cc(Cl)ccc21` [Compound 14, 3-(3,6-dichloro-9H-carbazol-9-yl)-N,N-dimethyl-propan-1-amine], for which the MIC in assay [1] turned out to be 7.5 µM (≈ 2.41 µg/mL); in assay [2] it was 75 µM (≈ 24.1 µg/mL); in assay [3], 24 µM (≈ 7.71 µg/mL). Further, the minimal fungicidal concentration (MFC) in assay [3] is 24 µM (≈ 7.71 µg/mL).

Regarding `CN1CCN(CC(O)Cn2c3ccc(C#N)cc3c3cc(C#N)ccc32)CC1` (centres unmarked) [Compound 12, 9-(2-hydroxy-3-(4-methylpiperazin-1-yl)propyl)-9H-carbazole-3,6-dicarbonitrile], the MIC in assay [1], in assay [2] and in assay [3] was above 75 µM in each case. The MFC in assay [3] is above 75 µM.

As for `O=C(O)C1CCN(CC(O)Cn2c3ccc(Cl)cc3c3cc(Cl)ccc32)CC1` (centres unmarked) [Compound 9, 1-(3-(3,6-dichloro-9H-carbazol-9-yl)-2-hydroxypropyl)piperidine-4-carboxylic acid], the figures for the MIC in assay [1], in assay [2] and in assay [3] were 75 µM (≈ 31.6 µg/mL), above 75 µM and above 75 µM, respectively. The minimum fungicidal concentration (MFC) in assay [3] is above 75 µM.

Regarding `COc1ccc2c(c1)c1cc(OC)ccc1n2CC(O)CN1CCN(C)CC1` (centres unmarked) [Compound 11, 1-(3,6-dimethoxy-9H-carbazol-9-yl)-3-(4-methylpiperazin-1-yl)propan-2-ol], the MIC in assay [1], in assay [2] and in assay [3] was above 75 µM in each case. The minimal fungicidal concentration (MFC) in assay [3] was above 75 µM.

Regarding `OC(Cn1cncn1)Cn1c2ccc(Cl)cc2c2cc(Cl)ccc21` (centres unmarked) [Compound 6, 1-(3,6-dichloro-9H-carbazol-9-yl)-3-(1H-1,2,4-triazol-1-yl)propan-2-ol], the values for the MIC in assay [1], in assay [2] and in assay [3] were 41 µM (≈ 14.8 µg/mL), above 75 µM and above 75 µM, respectively. In addition, the minimum fungicidal concentration (MFC) in assay [3] is above 75 µM.

Source of the values: paper PMC5609566, “Elucidation of antimicrobial activity and mechanism of action by N-substituted carbazole derivatives” (Bioorganic & Medicinal Chemistry Letters, 2017).
